# Test results as given in publication PMC5502055, “Phase II study of lanreotide autogel in Japanese patients with unresectable or metastatic well-differentiated neuroendocrine tumors” (Investigational New Drugs, 2017).
# Test system: Japanese patients with grade (G) 1/G2 NET
# Assay: Phase II and extension study: anti-tumor efficacy by RECIST ver. 1.1 (CBR, PFS, OS, ORR, sum of target lesion diameters)
# Format: in vivo, human
# Procedure: A phase II, multicenter, single-arm study was conducted at 10 sites in Japan. Patients were treated via deep subcutaneous (buttocks) injection of lanreotide at a dosage of 120 mg once every 4 weeks for a 48-week period. Patients who completed the phase II study were enrolled in an additional multicenter single-arm extension study that used the same dosage and injection methods and involved 7 of the 10 initial sites.
# Japanese patients with G1 or 2 (mild/moderate malignancy) NET and an age of ≥20 years were selected for the phase II study according to the World Health Organization (WHO) 2010 classification except for those whose primary tumors were located in the lungs, bronchi, or thymus (according to the WHO 2004 classification). Other inclusion criteria were the following: metastatic disease and/or a locally advanced inoperable tumor, or refusal of surgery, and target lesions based on the Response Evaluation Criteria in Solid Tumors (RECIST) ver.1.1, and a score of 0–2 on the WHO performance status. The exclusion criteria are described in the Electronic Supplementary Material. These criteria allowed the enrolment of the same target population as that of the CLARINET study: patients with G1 or 2 NET with primary tumor sites in the pancreas, midgut, hindgut, or unknown; non-functional NET except gastrinomas adequately controlled by proton pump inhibitors for 4 months or longer; and absence of multiple endocrine neoplasia.
# The primary endpoint was the clinical benefit rate (CBR) at 24 weeks after the first injection, which served to indicate and confirm the anti-tumor effects of lanreotide. The CBR was defined as the percentage of patients in the analysis set who achieved a complete response or partial response (PR) as the best overall response, or those who maintained stable disease (SD) over 24 weeks after the first injection by central review. Secondary efficacy endpoints were progression-free survival (PFS), overall survival (OS), objective response rate (ORR), and the percent change from baseline in the sum of the diameters of target lesion from baseline. The PFS was defined as the time from the first injection until progressive disease (PD) or death. Regarding tumor lesion imaging ≥4 weeks before the baseline, the investigators evaluated computed tomography (CT) or magnetic resonance imaging (MRI) data based on the RECIST (ver. 1.1). To evaluate anti-tumor effects after baseline, CT or MRI data were evaluated centrally by an independent third party based on the RECIST (ver. 1.1). During the study period, images of each patient were determined using the same method (CT or MRI), according to the standardized procedure at each site. CT or MRI was conducted every 12 weeks from the first injection. Regarding quality of life (QOL), patients completed the European Organization for Research and Treatment of Cancer (EORTC) QOL questionnaire (QLQ)-C30 (ver. 3.0) every 12 weeks during the 48 -week period after the first injection and every 24 weeks thereafter.
# Full analysis set (FAS) and CLARINET-like FAS which was satisfied eligibility criteria of the CLARINET study were used for efficacy analysis. Safety analysis set which included patients who had received the study drug at least once was used for safety analysis. Per protocol set (PPS) was used for pharmacokinetic analysis.
# In the primary analysis, the CBR point estimate at 24 weeks after the first injection and an exact F distribution-based 95% confidence interval (CI) were calculated. The CBR was selected as the primary endpoint, because maintaining SD was deemed beneficial and clinically meaningful for NET patients. In the secondary analysis, Kaplan–Meier curves of PFS and OS were prepared, and median values and 95% CIs were calculated. The ORRs at 24, 48, and 60 weeks after the first injection were also calculated. […]
# [1] = FAS n=28, printed as decreased by
compound,measurement,setting,value
CC(C)[C@@H]1NC(=O)[C@H](CCCCN)NC(=O)[C@@H](Cc2c[nH]c3ccccc23)NC(=O)[C@H](Cc2ccc(O)cc2)NC(=O)[C@@H](NC(=O)[C@H](N)Cc2ccc3ccccc3c2)CSSC[C@@H](C(=O)N[C@H](C(N)=O)[C@@H](C)O)NC1=O [lanreotide],clinical benefit rate (CBR) at 24 weeks after the first injection,"120 mg deep s.c. every 4 weeks, full analysis set, 18/28 patients, 95% CI 44.1%, 81.4%, central review",64.3%
same,CBR at 24 weeks after the first injection,"CLARINET-like FAS, 15/22 patients, 95% CI 45.1%, 86.1%",68.2%
same,median PFS,"FAS n=28, Kaplan-Meier",9.1 months
same,median PFS,"FAS n=28, Kaplan-Meier, 95% CI 24.1, 53.1 weeks",36.3 weeks
same,"percentage change from baseline in sum of diameters of target lesion at best time point, mean ± SD (decrease)",[1],3.6 ± 21.3%
same,"percentage change from baseline in sum of diameters of target lesion at best time point, minimum value (decrease)",[1],58.5%
same,"percentage change from baseline in sum of diameters of target lesion at best time point, maximum value (increase)","FAS n=28, printed as increased by",53.4%
same,CBR Week 24,"FAS subgroup Age (years) >65, 7/12",58.3 (7/12) %
same,Median time PFS,"FAS subgroup Age (years) >65, N=12, median (95% CI)",36.64 weeks
same,CBR Week 24,"FAS subgroup Age (years) ≤65, 11/16",68.8 (11/16) %
same,Median time PFS,"FAS subgroup Age (years) ≤65, N=16, median (95% CI)","36.29 (12.29, 53.14) weeks"
same,CBR Week 24,"FAS subgroup Baseline TGR (%/month) <10, 10/13",76.9 (10/13) %
same,Median time PFS,"FAS subgroup Baseline TGR (%/month) <10, N=13, median (95% CI)",59.43 weeks
same,CBR Week 24,"FAS subgroup Baseline TGR (%/month) ≥10, 8/15",53.3 (8/15) %
same,Median time PFS,"FAS subgroup Baseline TGR (%/month) ≥10, N=15, median (95% CI)","35.29 (12.14, 37.14) weeks"
same,CBR Week 24,"FAS subgroup Grade of tumor Grade 1, 5/9",55.6 (5/9) %
same,CBR Week 24,"FAS subgroup Grade of tumor Grade 2, 13/19",68.4 (13/19) %
same,Median time PFS,"FAS subgroup Grade of tumor Grade 2, N=19, median (95% CI)","36.29 (21.29, 49.14) weeks"
same,CBR Week 24,"FAS subgroup Hepatic tumor load (%) >10 and ≤25, 4/6",66.7 (4/6) %
same,Median time PFS,"FAS subgroup Hepatic tumor load (%) >10 and ≤25, N=6, median (95% CI)",35.79 weeks
same,CBR Week 24,"FAS subgroup Hepatic tumor load (%) >25 and ≤50, 1/3",33.3 (1/3) %
same,Median time PFS,"FAS subgroup Hepatic tumor load (%) >25 and ≤50, N=3, median (95% CI)","25.14 (24.14, 37.14) weeks"
same,CBR Week 24,"FAS subgroup Hepatic tumor load (%) >50, 1/1",100.0 (1/1) %
same,CBR Week 24,"FAS subgroup Hepatic tumor load (%) ≥0 and ≤10, 12/18",66.7 (12/18) %
same,Median time PFS,"FAS subgroup Hepatic tumor load (%) ≥0 and ≤10, N=18, median (95% CI)","36.36 (21.29, 59.43) weeks"
same,CBR Week 24,"FAS subgroup Ki67 index (%) >2 and ≤5, 5/8",62.5 (5/8) %
same,Median time PFS,"FAS subgroup Ki67 index (%) >2 and ≤5, N=8, median (95% CI)",42.72 weeks
same,CBR Week 24,"FAS subgroup Ki67 index (%) >5 and <10, 8/9",88.9 (8/9) %
same,Median time PFS,"FAS subgroup Ki67 index (%) >5 and <10, N=9, median (95% CI)","36.29 (21.29, 53.14) weeks"
same,CBR Week 24,"FAS subgroup Ki67 index (%) Unknown, 0/1",0.0 (0/1) %
same,Median time PFS,"FAS subgroup Ki67 index (%) Unknown, N=1, 95% CI NC",12.14 weeks
same,CBR Week 24,"FAS subgroup Ki67 index (%) ≤ 2, 5/8",62.5 (5/8) %
same,CBR Week 24,"FAS subgroup Ki67 index (%) ≥10 and <20, 0/2",0.0 (0/2) %
same,Median time PFS,"FAS subgroup Ki67 index (%) ≥10 and <20, N=2, median (95% CI)","12.07 (12.00, 12.14) weeks"
same,CBR Week 24,"FAS subgroup Sex Female, 6/9",66.7 (6/9) %
same,Median time PFS,"FAS subgroup Sex Female, N=9, median (95% CI)",53.14 weeks
same,CBR Week 24,"FAS subgroup Sex Male, 12/19",63.2 (12/19) %
same,Median time PFS,"FAS subgroup Sex Male, N=19, median (95% CI)","36.14 (12.29, 49.14) weeks"
same,CBR Week 24,"FAS subgroup primary tumor site Foregut (except for pancreas), 0/1",0.0 (0/1) %
same,Median time PFS,"FAS subgroup primary tumor site Foregut (except for pancreas), N=1, 95% CI NC",12.00 weeks
same,CBR Week 24,"FAS subgroup primary tumor site Hindgut, 2/8",25.0 (2/8) %
same,Median time PFS,"FAS subgroup primary tumor site Hindgut, N=8, median (95% CI)","22.65 (12.14, 49.14) weeks"
same,CBR Week 24,"FAS subgroup primary tumor site Midgut, 2/2",100.0 (2/2) %
same,CBR Week 24,"FAS subgroup primary tumor site Other/ Unknown, 4/5",80.0 (4/5) %
same,Median time PFS,"FAS subgroup primary tumor site Other/ Unknown, N=5, median (95% CI)",36.14 weeks
same,CBR Week 24,"FAS subgroup primary tumor site Pancreas, 10/12",83.3 (10/12) %
same,Median time PFS,"FAS subgroup primary tumor site Pancreas, N=12, median (95% CI)","36.79 (24.14, 59.43) weeks"
same,CBR Week 24,"FAS subgroup prior treatment for NET Absent, 6/6",100.0 (6/6) %
same,CBR Week 24,"FAS subgroup prior treatment for NET Present, 12/22",54.5 (12/22) %
same,Median time PFS,"FAS subgroup prior treatment for NET Present, N=22, median (95% CI)","36.22 (12.29, 49.14) weeks"
same,CBR Week 24,"FAS subgroup progressive disease at baseline Absent, 13/17",76.5% (13/17)
same,Median time PFS,"FAS subgroup progressive disease at baseline Absent, N=17, median (95% CI)",53.14 weeks
same,CBR Week 24,"FAS subgroup progressive disease at baseline Present, 5/11",45.5% (5/11)
same,Median time PFS,"FAS subgroup progressive disease at baseline Present, N=11, median (95% CI)","25.14 (12.00, 37.14) weeks"
same,patients without increase in sum of diameters of target lesion at best time point,"FAS, 16 of 28 patients",57.1%
same,patients with PR or SD as best overall response,"FAS, 22 of 28 patients",78.6%
same,ORR at Week 60,"FAS, 1 patient with PR at 60 weeks in extension study, 95% CI 0.1%, 18.3%",3.6%
same,median OS,Kaplan-Meier,not reached
same,Forty-eight weeks survival rate,Kaplan-Meier estimate,96.4%
same,median PFS,population with PD at baseline (11 patients),6.3 months
same,median PFS,"population with PD at baseline (11 patients), 95% CI 12.0, 37.1 weeks",25.1 weeks
same,median PFS,population without PD at baseline (17 patients),13.3 months
same,median PFS,"population without PD at baseline (17 patients), 95% CI 24.1 weeks, Not calculable",53.1 weeks
